Reference: patent publication US20100112089A1, “PEPTIDE COMPOUND AND USE THEREOF” (Takeda Pharmaceutical Company Limited, priority 2008, published 2010)

Experiments:
[1] = system: NCI-H226 subcutaneous xenograft tumor; experiment: Subcutaneous tumor xenograft model; type: in vivo, SCID mice; conditions: cisplatin 9 mg/kg
Method: A suspension of NCI-H226 cells was injected subcutaneously into the flanks of six weeks old male severe […] combined immune deficiency (SCID) mice (Charles River Lab., Wilmington, Mass.). The size of tumors was measured three times a week using a caliper. The volumes were calculated using the following formula: volume (cm^3)=[width^2 (mm)×length (mm)]/2000. The relative tumor volume was expressed as the Vt/V0 index, where Vt is the tumor volume on a measured day, and V0 is the volume of the same tumor just before the first treatment. Mean relative tumor sizes with standard error of mean, SEM, were plotted. Body weight was measured three times weekly from the first treatment, and the weight change was expressed as a percentage of the initial weight. Animals were housed in accordance with guidelines from the Association for the Assessment and Accreditation of Laboratory Animal Care International, and the protocols were approved by the institutional animal care committee of CanBas Co., Ltd.
The statistical significance of the differences of the relative tumor volume between groups was determined by Student's t tests.

NCI-H226 cells [2] = type: cell-based; conditions: bleomycin 2 μg/ml alone
Method: The cells were harvested and lysed in a lysis buffer [50 mM Tris-HCl (pH 8.0), 5 mM EDTA (pH 8.0), 100 mM NaCl, 0.5% NP-40, 2 mM DTT, 50 mM NaF, 1 mM Na3VO4, 1 μM microcystin, proteinase inhibitors cocktail (Roche, Mannheim, Germany)] for 30 min on ice and the lysates were clarified by centrifugation at 15,000 rpm for 20 min at 4° C. Protein concentration of the supernatants was evaluated using a detergent-compatible protein assay kit (Bio-Rad, Hercules, Calif.) according to the manufacturer's instructions. Whole cell lysates (60 μg) were run on a 10-12% SDS-PAGE gel, and transferred onto polyvinylidene difluoride (PVDF) membranes (Bio-Rad). The membrane was blocked at room temperature for 1 hr in TBST (0.1% Tween 20 in TBS) containing 2% ECL Advance Blocking Reagent (GE healthcare, Waukesha, Wis.) and incubated with primary antibody overnight at 4° C. The membrane was incubated with anti-peroxidase conjugated secondary antibody (Cell Signaling) for 1 hr at room temperature and analyzed using the enhanced chemiluminescence detection system (ECL Advance Western Blotting Detection Kit, GE healthcare).

NCI-H226 cells [3] = experiment: Confocal immunofluorescence analysis of damage foci; type: cell-based; conditions: bleomycin at 0.4 μg/ml alone
Method: The cells were fixed in ice-cold methanol at −20° C. for 20 min, and blocked with PBS containing 5% BSA for 45 min. Cells were then incubated with anti-γ-H2AX, anti-ATM p-Ser1981, anti-DNA-PKcs p-Thr2609, anti-NBS1 p-Ser343, or anti-SMC1 p-Ser957 antibodies overnight at 4° C., followed by incubation with Alexa 594-conjugated secondary antibody (Invitrogen, Carlsbad, Calif.) for 1 hr at room temperature in the dark. Cell nuclei were stained using Hoechst 33342. Fluorescence was visualized and analyzed using Becton Dickinson Pathway450. The intensity of the nuclei and number of foci was assessed by ATTOVision and IPLab software (Becton Dickinson), respectively.

N.N.[Cl][Pt][Cl] [cisplatin]
tumor growth [1]: suppressed tumor growth

bleomycin
phosphorylation of ATM (Ser1981), H2AX, CHK1 (Ser317), CHK2 (Thr68) (NCI-H226 cells [2]): induced phosphorylation
foci formation (γ-H2AX, NBS1 p-Ser343, ATM p-Ser1981, SMC1 p-Ser957) (NCI-H226 cells [3]): only marginally increased foci formation
